The text below walks through data of US20070265208A1, “Association of calpain inhibitors and reactive oxygen species trapping agents” (priority 2000, published 2007).

The structures appear in SMILES notation.

In the experiment the test system is rat glial cells C6. Description: Protection from necrosis induced by maitotoxin, C6 (wst-1 viability). The format is cell-based. To be noted: single product at 50 μM, n = 3 for Example 2, else n = 1. As for the experimental part: Human neuroblastomas SHSY5Y and rat glial cells C6 are seeded at 25 000 cells per well in 96-well plates in DMEM 10% FBS for 24 hours. The L6 rat myoblasts are seeded at 1000 cells per well in DMEM 10% FBS on 96-well microplates coated beforehand with gelatin 0.5% PBS. After culture for 3 days the medium is removed and replaced with a differentiation medium (DMEM+10 μg/ml of insulin+100 μg/ml of transferrin). 50 μl of product A plus 50 μl of solvent or 50 μl of product B are placed in the wells. After incubation for 1 hour at 37° C. under an atmosphere of 5% CO2, 10 μl of maitotoxin is added in order to obtain a final concentration of 0.1 nM to 1 nM (according to the cell type). After incubation for 3 hours at 37° C. under an atmosphere of 5% CO2, the cell viability is determined by adding 10 μl of tetrazolium salts (wst-1, Roche, ref: 1644807). The tetrazolium salts are cleaved into formazan molecules by mitochondrial dehydrogenases. The quantity of formazan formed is directly correlated to the number of metabolically active cells in the culture. Measurement of the absorbance of the formazan is carried out using a multiwell photometer at a wavelength of 420 nm against a reference wavelength of 620 nm.
The theoretical effect was obtained by multiplying the percentage of dead cells in the presence of product A by the percentage of dead cells in the presence of product B (Table 3). The percentage protection against cell death induced by MTX being the percentage of cells kept alive in the presence of the product or products.
In the light of the previous results, the combination of Example 1 with product A and product B at a rate of 100 μM of each of the products is carried out on human neuroblastomas (SHSY5Y; (Table 5A) and on glial cells with 25 μM of product A and 50 μM of product B (C6; Table 5B) on a larger number of cases.

As for `CC(C)C[C@@H](C=O)NC(=O)[C@H](CC(C)C)NC(=O)OCc1ccccc1` [EXAMPLE 1 B, benzyl (1S)-1-({[(1S)-1-formyl-3-methylbutyl]amino}carbonyl)-3-methylbutylcarbamate], the “Protection from necrosis induced by MTX on C6” value (from here on “Protection”) turned out to be 9.63%. Further, the “Protection” value (listed as EXAMPLE 6 B) is recorded as 4.91%. Further, the “Protection” value (listed as Z-Leu-Leu-H) is on record as “not active”.
